Assay results taken from ChEMBL document CHEMBL3045322, “Synthesis and herbicidal activity of 2-acylimino-3-phenyl-1,3-thiazolines—A new family of bleaching herbicides—” (J Pestic Sci, 2006).

What was measured:
Assay type in all cases: functional
[1] = tested on: Abutilon theophrasti; assay: Herbicidal activity against Abutilon theophrasti (velvetleaf) in plastic pot assessed as killing at 500 g/ha under greenhouse for 20 days by preemergence herbicidal activity tests
[2] = tested on: Echinochloa frumentacea; assay: Herbicidal activity against Echinochloa frumentacea (Japanese millet) in plastic pot assessed as killing at 500 g/ha under greenhouse for 20 days by preemergence herbicidal activity tests
[3] = tested on: Ipomoea nil; assay: Herbicidal activity against Ipomoea nil (Japanese morning glory) in plastic pot assessed as killing at 500 g/ha under greenhouse for 20 days by pre-emergence herbicidal activity tests

| SMILES | Activity [1] [%] | Activity [2] [%] | Activity [3] [%] |
| --- | --- | --- | --- |
| C/N=c1/sc(C)cn1-c1cccc(C(F)(F)F)c1 | 0 | 0 | 0 |
| Cc1cn(-c2cccc(C(F)(F)F)c2)/c(=N/c2ccc(Cl)cc2)s1 | 0 | 0 | 0 |
| CSC(=S)/N=c1/sc(C)cn1-c1cccc(C(F)(F)F)c1 | 30 | 50 | 40 |
| CC(=O)/N=c1/sc(C)cn1-c1cccc(C(F)(F)F)c1 | 90 | 100 | 100 |
| CC(=S)/N=c1/sc(C)cn1-c1cccc(C(F)(F)F)c1 | 0 | 10 | 0 |
| CCNC(=O)/N=c1/sc(C)cn1-c1cccc(C(F)(F)F)c1 | 40 | 80 | 40 |
| CCNC(=S)/N=c1/sc(C)cn1-c1cccc(C(F)(F)F)c1 | 0 | 20 | 0 |
| Cc1cn(-c2cccc(C(F)(F)F)c2)/c(=N\C(=O)N(C)C)s1 | 30 | 70 | 20 |
| Cc1cn(-c2cccc(C(F)(F)F)c2)/c(=N\C(=O)Nc2ccccc2)s1 | 60 | 60 | 40 |
| Cc1cn(-c2cccc(C(F)(F)F)c2)/c(=N\S(C)(=O)=O)s1 | 80 | 90 | 80 |
| Cc1cn(-c2cccc(C(F)(F)F)c2)/c(=N/C#N)s1 | 60 | 90 | 50 |
| CCC(=O)/N=c1\sc(C)cn1-c1cccc(C(F)(F)F)c1 | 50 | 70 | 60 |
| CCCC(=O)/N=c1\sc(C)cn1-c1cccc(C(F)(F)F)c1 | 20 | 40 | 40 |
| Cc1cn(-c2cccc(C(F)(F)F)c2)/c(=N/C(=O)C(C)C)s1 | 60 | 70 | 40 |
| Cc1cn(-c2cccc(C(F)(F)F)c2)/c(=N/C(=O)C(C)(C)C)s1 | 40 | 50 | 60 |
| Cc1cn(-c2cccc(C(F)(F)F)c2)/c(=N/C(=O)C2CC2)s1 | 40 | 90 | 60 |
| Cc1cn(-c2cccc(C(F)(F)F)c2)/c(=N/C(=O)CCl)s1 | 0 | 20 | 0 |
| Cc1cn(-c2cccc(C(F)(F)F)c2)/c(=N/C(=O)C(Cl)Cl)s1 | 0 | 30 | 0 |
| Cc1cn(-c2cccc(C(F)(F)F)c2)/c(=N/C(=O)CF)s1 | 70 | 90 | 90 |
| CCOC(=O)/N=c1/sccn1-c1cccc(C(F)(F)F)c1 | 20 | 50 | 20 |
